{"source": "patent US9890171B2", "about": "“Aldosterone synthase inhibitors” (Boehringer Ingelheim International GmbH, priority 2014, dated 2018)"}
{"target": "aldosterone synthase (CYP11B2) (Macaca fascicularis, UniProt A0A2K5UPL9)", "sequence (A0A2K5UPL9 1-503)": "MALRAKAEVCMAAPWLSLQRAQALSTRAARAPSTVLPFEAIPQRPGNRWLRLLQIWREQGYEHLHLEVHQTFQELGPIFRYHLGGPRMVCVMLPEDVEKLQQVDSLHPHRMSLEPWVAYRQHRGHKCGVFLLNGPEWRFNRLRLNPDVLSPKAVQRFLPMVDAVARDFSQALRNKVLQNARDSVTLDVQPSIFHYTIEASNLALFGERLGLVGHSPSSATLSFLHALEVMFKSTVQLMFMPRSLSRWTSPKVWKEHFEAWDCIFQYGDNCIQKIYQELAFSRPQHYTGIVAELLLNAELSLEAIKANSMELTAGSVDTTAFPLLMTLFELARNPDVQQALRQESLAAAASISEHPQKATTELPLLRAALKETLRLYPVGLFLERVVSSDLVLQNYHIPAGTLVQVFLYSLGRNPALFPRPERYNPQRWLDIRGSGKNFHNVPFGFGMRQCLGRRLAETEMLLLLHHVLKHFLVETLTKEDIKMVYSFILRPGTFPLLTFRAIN", "experiment": "aldosterone synthase inhibition assay", "format": "biochemical, cynomolgus monkey", "details": "cynomolgus adrenal gland mitochondria, 2 μM corticosterone, aldosterone quantified by mass spectrometry", "in_short": "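Cynomolgus adrenal mitochondria ([…]) used as CYP11B2 source with 2 μM corticosterone in 100 mM potassium phosphate pH 7.4, 1% DMSO; reaction started with 1 mM NADPH, run 60-90 min at 37° C. Aldosterone measured by mass spectrometry; IC50 from 4-parameter logistic fit, no-NADPH blank as 0%.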", "units": {"IC50": "nM"}}
{"smiles": "O=c1ccc2cc(-c3cncc4c3COCC4O)ccc2o1", "note": "(single isomer, unassigned) [Compound 125, 6-(4-Hydroxy-3,4-dihydro-1H-pyrano[4,3-c]pyridin-8-yl)-chromen-2-one]", "IC50": 22.8}
{"smiles": "O=c1ccc2cc(-c3cncc4c3COCC4O)ccc2o1", "note": "(single isomer, unassigned) [Compound 126, 6-(4-Hydroxy-3,4-dihydro-1H-pyrano[4,3-c]pyridin-8-yl)-chromen-2-one]", "IC50": 14}
{"smiles": "OC1COCc2c(-c3ccc4c(Cl)n[nH]c4c3)cncc21", "note": "(single isomer, unassigned) [Compound 127, 8-(3-Chloro-1H-indazol-6-yl)-3,4-dihydro-1H-pyrano[4,3-c]pyridin-4-ol]", "IC50": 6.7}
{"smiles": "CCC(=O)NC1COCc2c(-c3ccc4c(Cl)n[nH]c4c3)cncc21", "note": "(single isomer, unassigned) [Compound 128, N-[8-(3-Chloro-1H-indazol-6-yl)-3,4-dihydro-1H-pyrano[4,3-c]pyridin-4-yl]-propionamide]", "IC50": 11.2}
{"smiles": "CCS(=O)(=O)NC1COCc2c(-c3ccc4c(Cl)n[nH]c4c3)cncc21", "note": "(single isomer, unassigned) [Compound 129, Ethanesulfonic acid [8-(3-chloro-1H-indazol-6-yl)-3,4-dihydro-1H-pyrano[4,3-c]pyridin-4-yl]-amide]", "IC50": 45.9}
{"smiles": "OC1COCc2c(-c3cc(Cl)c4cn[nH]c4c3)cncc21", "note": "(single isomer, unassigned) [Compound 130, 8-(4-Chloro-1H-indazol-6-yl)-3,4-dihydro-1H-pyrano[4,3-c]pyridin-4-ol]", "IC50": 238}
{"smiles": "OC1CCOc2ccc(-c3cncc4c3COCC4O)cc21", "note": "(single isomer, unassigned) [Compound 131, 8-(4-Hydroxy-chroman-6-yl)-3,4-dihydro-1H-pyrano[4,3-c]pyridin-4-ol]", "IC50": 1470}
{"smiles": "CCC(=O)NC1COCc2c(-c3ccc4c(c3)C(O)CCO4)cncc21", "note": "(single isomer, unassigned) [Compound 132, N-[8-(4-Hydroxy-chroman-6-yl)-3,4-dihydro-1H-pyrano[4,3-c]pyridin-4-yl]-propionamide]", "IC50": 518}
{"smiles": "CCS(=O)(=O)NC1COCc2c(-c3ccc4c(c3)C(O)CCO4)cncc21", "note": "(single isomer, unassigned) [Compound 133, Ethanesulfonic acid [8-(4-hydroxy-chroman-6-yl)-3,4-dihydro-1H-pyrano[4,3-c]pyridin-4-yl]-amide]", "IC50": 1470}
{"smiles": "OC1CCOc2ccc(-c3cncc4c3COCC4O)cc21", "note": "(single isomer, unassigned) [Compound 134, 8-(4-Hydroxy-chroman-6-yl)-3,4-dihydro-1H-pyrano[4,3-c]pyridin-4-ol]", "IC50": 253}
{"smiles": "CCC(=O)NC1COCc2c(-c3ccc4c(c3)C(O)CCO4)cncc21", "note": "(single isomer, unassigned) [Compound 135, N-[8-(4-Hydroxy-chroman-6-yl)-3,4-dihydro-1H-pyrano[4,3-c]pyridin-4-yl]-propionamide]", "IC50": 341}
{"smiles": "CCS(=O)(=O)NC1COCc2c(-c3ccc4c(c3)C(O)CCO4)cncc21", "note": "(single isomer, unassigned) [Compound 136, Ethanesulfonic acid [8-(4-hydroxy-chroman-6-yl)-3,4-dihydro-1H-pyrano[4,3-c]pyridin-4-yl]-amide]", "IC50": 10000}
{"smiles": "CC1(O)CCOc2ccc(-c3cncc4c3COCC4O)cc21", "note": "(single isomer, unassigned) [Compound 137, 8-(4-Hydroxy-4-methyl-chroman-6-yl)-3,4-dihydro-1H-pyrano[4,3-c]pyridin-4-ol]", "IC50": 1870}
{"smiles": "CC1(O)CCOc2ccc(-c3cncc4c3COCC4O)cc21", "note": "(single isomer, unassigned) [Compound 138, 8-(4-Hydroxy-4-methyl-chroman-6-yl)-3,4-dihydro-1H-pyrano[4,3-c]pyridin-4-ol]", "IC50": 1560}
{"smiles": "CC1(O)CCOc2ccc(-c3cncc4c3COCC4O)cc21", "note": "(single isomer, unassigned) [Compound 139, 8-(4-Hydroxy-4-methyl-chroman-6-yl)-3,4-dihydro-1H-pyrano[4,3-c]pyridin-4-ol]", "IC50": 2800}
{"smiles": "CC1(O)CCOc2ccc(-c3cncc4c3COCC4O)cc21", "note": "(single isomer, unassigned) [Compound 140, 8-(4-Hydroxy-4-methyl-chroman-6-yl)-3,4-dihydro-1H-pyrano[4,3-c]pyridin-4-ol]", "IC50": 12000}
{"smiles": "OC1COCc2c(-c3ccc4c(c3)C(F)(F)CCO4)cncc21", "note": "(single isomer, unassigned) [Compound 141, 8-(4,4-Difluoro-chroman-6-yl)-3,4-dihydro-1H-pyrano[4,3-c]pyridin-4-ol]", "IC50": 339}
{"smiles": "OC1COCc2c(-c3ccc4c(c3)C(F)(F)CCO4)cncc21", "note": "(single isomer, unassigned) [Compound 142, 8-(4,4-Difluoro-chroman-6-yl)-3,4-dihydro-1H-pyrano[4,3-c]pyridin-4-ol]", "IC50": 118}
{"smiles": "CCC(=O)NC1COCc2c(-c3ccc4c(c3)C(F)(F)CCO4)cncc21", "note": "(single isomer, unassigned) [Compound 143, N-[8-(4,4-Difluoro-chroman-6-yl)-3,4-dihydro-1H-pyrano[4,3-c]pyridin-4-yl]-propionamide]", "IC50": 27.9}
{"smiles": "CCS(=O)(=O)NC1COCc2c(-c3ccc4c(c3)C(F)(F)CCO4)cncc21", "note": "(single isomer, unassigned) [Compound 144, Ethanesulfonic acid [8-(4,4-difluoro-chroman-6-yl)-3,4-dihydro-1H-pyrano[4,3-c]pyridin-4-yl]-amide]", "IC50": 470}
{"smiles": "O=C1NCCOc2cc(-c3cncc4c3COCC4O)ccc21", "note": "(single isomer, unassigned) [Compound 145, 8-(4-Hydroxy-3,4-dihydro-1H-pyrano[4,3-c]pyridin-8-yl)-3,4-dihydro-2H-benzo[f][1,4]oxazepin-5-one]", "IC50": 738}
{"smiles": "O=C1NCCOc2cc(-c3cncc4c3COCC4O)ccc21", "note": "(single isomer, unassigned) [Compound 146, 8-(4-Hydroxy-3,4-dihydro-1H-pyrano[4,3-c]pyridin-8-yl)-3,4-dihydro-2H-benzo[f][1,4]oxazepin-5-one]", "IC50": 9730}
{"smiles": "CCC(=O)NC1COCc2c(-c3ccc4c(c3)OCCNC4=O)cncc21", "note": "(single isomer, unassigned) [Compound 147, N-[8-(5-Oxo-2,3,4,5-tetrahydro-benzo[f][1,4]oxazepin-8-yl)-3,4-dihydro-1H-pyrano[4,3-c]pyridin-4-yl]-propionamide]", "IC50": 1690}
{"smiles": "OC1COCc2c(-c3ccc4c(c3)COCCC4(F)F)cncc21", "note": "(single isomer, unassigned) [Compound 148, 8-(5,5-Difluoro-1,3,4,5-tetrahydro-benzo[c]oxepin-8-yl)-3,4-dihydro-1H-pyrano[4,3-c]pyridin-4-ol]", "IC50": 83.7}
{"smiles": "Cn1ncc2c(F)cc(-c3cncc4c3COCC4N)cc21", "note": "(single isomer, unassigned) [Compound 149, 8-(4-Fluoro-1-methyl-1H-indazol-6-yl)-3,4-dihydro-1H-pyrano[4,3-c]pyridin-4-ylamine]", "IC50": 17.3}
{"smiles": "CCC(=O)NC1COCc2c(-c3cc(F)c4cnn(C)c4c3)cncc21", "note": "(single isomer, unassigned) [Compound 150, N-[8-(4-Fluoro-1-methyl-1H-indazol-6-yl)-3,4-dihydro-1H-pyrano[4,3-c]pyridin-4-yl]-propionamide]", "IC50": 17.4}
{"smiles": "CC(=O)NC1COCc2c(-c3ccc4c(c3)CCC4=O)cncc21", "note": "(single isomer, unassigned) [Compound 151, N-[8-(1-Oxo-indan-5-yl)-3,4-dihydro-1H-pyrano[4,3-c]pyridin-4-yl]-acetamide]", "IC50": 4880}
{"smiles": "CC(=O)NC1COCc2c(-c3ccc4c(c3)CCC4=O)cncc21", "note": "(single isomer, unassigned) [Compound 152, N-[8-(1-Oxo-indan-5-yl)-3,4-dihydro-1H-pyrano[4,3-c]pyridin-4-yl]-acetamide]", "IC50": 50.2}
{"smiles": "CC(C)(O)CC(=O)NC1COCc2c(-c3ccc4c(c3)CCC4=O)cncc21", "note": "(single isomer, unassigned) [Compound 153, 3-Hydroxy-3-methyl-N-[8-(1-oxo-indan-5-yl)-3,4-dihydro-1H-pyrano[4,3-c]pyridin-4-yl]-butyramide]", "IC50": 70}
{"smiles": "CC(=O)NC1COCc2c(-c3ccc4oc(=O)ccc4c3)cncc21", "note": "(single isomer, unassigned) [Compound 154, N-[8-(2-Oxo-2H-chromen-6-yl)-3,4-dihydro-1H-pyrano[4,3-c]pyridin-4-yl]-acetamide]", "IC50": 26.3}
{"smiles": "CCC(=O)NC1COCc2c(-c3ccc4cnn(C)c4c3)cncc21", "note": "(single isomer, unassigned) [Compound 155, N-[8-(1-Methyl-1H-indazol-6-yl)-3,4-dihydro-1H-pyrano[4,3-c]pyridin-4-yl]-propionamide]", "IC50": 3800}
{"smiles": "CCC(=O)NC1COCc2c(-c3ccc4onc(C)c4c3)cncc21", "note": "(single isomer, unassigned) [Compound 156, N-[8-(3-Methyl-benzo[d]isoxazol-5-yl)-3,4-dihydro-1H-pyrano[4,3-c]pyridin-4-yl]-propionamide]", "IC50": 312}
{"smiles": "CCS(=O)(=O)NC1COCc2c(-c3ccc4c(c3)CCC4=O)cncc21", "note": "(single isomer, unassigned) [Compound 157, Ethanesulfonic acid [8-(1-oxo-indan-5-yl)-3,4-dihydro-1H-pyrano[4,3-c]pyridin-4-yl]-amide]", "IC50": 46}
{"smiles": "CCS(=O)(=O)NC1COCc2c(-c3ccc4oc(=O)ccc4c3)cncc21", "note": "(single isomer, unassigned) [Compound 158, Ethanesulfonic acid [8-(2-oxo-2H-chromen-6-yl)-3,4-dihydro-1H-pyrano[4,3-c]pyridin-4-yl]-amide]", "IC50": 13}
{"smiles": "CCS(=O)(=O)NC1COCc2c(-c3ccc4onc(C)c4c3)cncc21", "note": "(single isomer, unassigned) [Compound 159, Ethanesulfonic acid [8-(3-methyl-benzo[d]isoxazol-5-yl)-3,4-dihydro-1H-pyrano[4,3-c]pyridin-4-yl]-amide]", "IC50": 797}
